From patent US20040072894A1, “Stable pharmaceutical formulation comprising a HMG-CoA reductase inhibitor” (priority 1998, published 2004)

Experiment: pH of pravastatin sodium crystals kept in normal air, nitrogen or carbon dioxide atmosphere
Format: physicochemical
Procedure: Another observation was that carbon dioxide from the air can irreversibly bind to the active substance and can cause a drop of pH. This is illustrated by the following experiment: 5 g of pravastatin sodium were dissolved in 30 ml of methanol, the pH was adjusted to 10 with 3% aqueous solution of NaOH. 400 ml of ethylacetate were added and the crystals of pravastatin sodium were formed. Crystals were filtered and dried and then put into three different atmospheres: normal air, nitrogen atmosphere and carbon dioxide atmosphere. In normal air and in the nitrogen atmosphere the pH remained the same during a period of 24 hours (normal air: 9.2, nitrogen: 9.5), but in the carbon dioxide atmosphere the pH dropped in the first two minutes from 9.2 to 6.9. After 12 minutes the pH was 6.6 and after 1 hour the pH was 6.5. After that, the pH remained constant. The third observation is that a sufficient stabilization of the active substance is already obtained at a pH of at least 7.0, but a beneficially high stability is effected at a pH of at least 8.0. We have noticed that at a pH below 8 the formation of lactone has occured and also the amount of other impurities has increased. The presence of humidity in the air and a carbon dioxide-rich atmosphere makes the negative effect of a low pH even stronger. This is illustrated by the following experiment: Pravastatin was dissolved in different buffers with the pH in a range between 7 and 11 (F=phosphate, C=citrate, B=borate). The occurrence of pravastatin in lactone form and the formation of different degradation products (impurities) was measured after 1, 5, 13 and 28 days.

- pH (carbon dioxide atmosphere, after 12 minutes): 6.6
- pH (carbon dioxide atmosphere, after 1 hour): 6.5
- pH (carbon dioxide atmosphere, after the first two minutes): 6.9
- pH (carbon dioxide atmosphere, starting value): 9.2
- pH (crystals in nitrogen atmosphere, remained the same during 24 hours): 9.5
- pH (crystals in normal air, remained the same during 24 hours): 9.2
SMILES: CC[C@H](C)C(=O)O[C@H]1C[C@H](O)C=C2C=C[C@H](C)[C@H](CC[C@@H](O)C[C@@H](O)CC(=O)O)[C@H]21 [Pravastatin sodium, pravastatin sodium]
